{"source": "ChEMBL document CHEMBL6087459", "about": "(J Med Chem, 2025)", "key": {"[1]": {"test_system": "HCT-8", "experiment": "Cytotoxicity against human HCT-8 cells assessed as reduction in cell numbers upto 50 uM incubated for 48 hrs by high-density microscopic celltiter aqueous assay", "assay_type": "toxicity, cell-based", "details": "hct-8, 48 h"}, "[2]": {"species_on_record": "Homo sapiens", "experiment": "Inhibition of human PDE1B at 10 uM by Eurofins kinase assay relative to control"}, "[3]": {"biological_target": "cGMP-dependent 3',5'-cyclic phosphodiesterase (Homo sapiens) (UniProt O00408)", "sequence (O00408 whole entry)": "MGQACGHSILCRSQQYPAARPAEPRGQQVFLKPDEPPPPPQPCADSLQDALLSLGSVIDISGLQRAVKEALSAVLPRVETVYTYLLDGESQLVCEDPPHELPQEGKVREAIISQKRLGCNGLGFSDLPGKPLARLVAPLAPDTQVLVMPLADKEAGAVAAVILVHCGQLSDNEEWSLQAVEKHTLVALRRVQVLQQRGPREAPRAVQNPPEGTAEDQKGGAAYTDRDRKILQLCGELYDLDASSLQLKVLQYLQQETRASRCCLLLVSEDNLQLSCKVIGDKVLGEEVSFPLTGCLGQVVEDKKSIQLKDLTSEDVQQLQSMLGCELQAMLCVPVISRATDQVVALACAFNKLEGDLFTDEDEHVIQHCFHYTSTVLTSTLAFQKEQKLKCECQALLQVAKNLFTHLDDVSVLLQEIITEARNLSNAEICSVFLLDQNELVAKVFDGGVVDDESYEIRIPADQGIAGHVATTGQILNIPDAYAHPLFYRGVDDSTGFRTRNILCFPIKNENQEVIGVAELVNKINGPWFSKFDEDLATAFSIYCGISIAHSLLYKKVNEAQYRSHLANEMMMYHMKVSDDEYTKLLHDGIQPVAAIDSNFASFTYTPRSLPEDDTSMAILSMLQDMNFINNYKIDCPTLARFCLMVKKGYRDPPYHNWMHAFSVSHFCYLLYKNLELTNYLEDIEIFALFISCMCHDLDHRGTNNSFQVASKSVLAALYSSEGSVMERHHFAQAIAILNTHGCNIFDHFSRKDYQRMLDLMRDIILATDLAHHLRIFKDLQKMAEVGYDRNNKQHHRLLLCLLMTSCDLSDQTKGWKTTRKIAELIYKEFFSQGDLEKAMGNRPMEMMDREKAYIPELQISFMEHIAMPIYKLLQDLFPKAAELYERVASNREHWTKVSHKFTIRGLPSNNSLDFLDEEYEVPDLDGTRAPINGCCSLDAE", "experiment": "Inhibition of human PDE2A1 at 10 uM by Eurofins kinase assay relative to control"}, "[4]": {"biological_target": "cGMP-inhibited 3',5'-cyclic phosphodiesterase 3A (Homo sapiens) (UniProt Q14432)", "experiment": "Inhibition of human PDE3A at 10 uM by Eurofins kinase assay relative to control"}, "[5]": {"biological_target": "cGMP-inhibited 3',5'-cyclic phosphodiesterase 3B (Homo sapiens) (UniProt Q13370)", "sequence (Q13370 whole entry, looked up)": "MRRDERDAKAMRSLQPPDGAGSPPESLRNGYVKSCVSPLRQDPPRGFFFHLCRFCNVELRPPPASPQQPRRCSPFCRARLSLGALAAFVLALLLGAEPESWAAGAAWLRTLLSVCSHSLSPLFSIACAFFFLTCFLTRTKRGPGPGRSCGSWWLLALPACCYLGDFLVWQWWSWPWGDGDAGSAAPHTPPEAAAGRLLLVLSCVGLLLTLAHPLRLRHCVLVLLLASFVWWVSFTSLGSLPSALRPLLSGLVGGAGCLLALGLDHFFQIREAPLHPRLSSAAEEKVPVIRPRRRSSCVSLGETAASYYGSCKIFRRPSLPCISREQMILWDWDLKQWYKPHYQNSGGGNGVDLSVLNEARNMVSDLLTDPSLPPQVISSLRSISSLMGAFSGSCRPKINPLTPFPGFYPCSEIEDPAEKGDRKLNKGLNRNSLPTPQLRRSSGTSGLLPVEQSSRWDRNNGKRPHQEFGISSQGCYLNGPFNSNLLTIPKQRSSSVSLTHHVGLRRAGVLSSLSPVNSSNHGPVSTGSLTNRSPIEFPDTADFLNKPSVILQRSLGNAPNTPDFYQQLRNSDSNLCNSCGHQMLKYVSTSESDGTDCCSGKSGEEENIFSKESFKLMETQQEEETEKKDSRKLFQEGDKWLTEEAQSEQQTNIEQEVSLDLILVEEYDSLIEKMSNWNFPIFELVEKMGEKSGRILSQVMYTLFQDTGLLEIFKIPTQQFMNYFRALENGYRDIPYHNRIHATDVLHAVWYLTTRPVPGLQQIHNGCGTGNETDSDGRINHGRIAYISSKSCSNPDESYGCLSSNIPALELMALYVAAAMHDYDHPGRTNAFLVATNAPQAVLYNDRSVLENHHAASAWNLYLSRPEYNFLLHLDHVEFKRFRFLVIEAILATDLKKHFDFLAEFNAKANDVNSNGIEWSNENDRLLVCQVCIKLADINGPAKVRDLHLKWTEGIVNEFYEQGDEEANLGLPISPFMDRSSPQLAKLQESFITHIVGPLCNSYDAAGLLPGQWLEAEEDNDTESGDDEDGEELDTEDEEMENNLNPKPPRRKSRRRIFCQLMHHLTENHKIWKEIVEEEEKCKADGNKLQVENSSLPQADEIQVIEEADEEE", "experiment": "Inhibition of human PDE3B at 10 uM by Eurofins kinase assay relative to control"}, "[6]": {"species_on_record": "Homo sapiens", "experiment": "Inhibition of human PDE4A1A at 10 uM by Eurofins kinase assay relative to control"}, "[7]": {"biological_target": "3',5'-cyclic-AMP phosphodiesterase 4B (Homo sapiens) (UniProt Q07343)", "experiment": "Inhibition of human PDE4B1 at 10 uM by Eurofins kinase assay relative to control"}, "[8]": {"biological_target": "T1, 3',5'-cyclic-AMP phosphodiesterase 4D (Homo sapiens, UniProt Q08499)", "T1 sequence (Q08499 whole entry)": "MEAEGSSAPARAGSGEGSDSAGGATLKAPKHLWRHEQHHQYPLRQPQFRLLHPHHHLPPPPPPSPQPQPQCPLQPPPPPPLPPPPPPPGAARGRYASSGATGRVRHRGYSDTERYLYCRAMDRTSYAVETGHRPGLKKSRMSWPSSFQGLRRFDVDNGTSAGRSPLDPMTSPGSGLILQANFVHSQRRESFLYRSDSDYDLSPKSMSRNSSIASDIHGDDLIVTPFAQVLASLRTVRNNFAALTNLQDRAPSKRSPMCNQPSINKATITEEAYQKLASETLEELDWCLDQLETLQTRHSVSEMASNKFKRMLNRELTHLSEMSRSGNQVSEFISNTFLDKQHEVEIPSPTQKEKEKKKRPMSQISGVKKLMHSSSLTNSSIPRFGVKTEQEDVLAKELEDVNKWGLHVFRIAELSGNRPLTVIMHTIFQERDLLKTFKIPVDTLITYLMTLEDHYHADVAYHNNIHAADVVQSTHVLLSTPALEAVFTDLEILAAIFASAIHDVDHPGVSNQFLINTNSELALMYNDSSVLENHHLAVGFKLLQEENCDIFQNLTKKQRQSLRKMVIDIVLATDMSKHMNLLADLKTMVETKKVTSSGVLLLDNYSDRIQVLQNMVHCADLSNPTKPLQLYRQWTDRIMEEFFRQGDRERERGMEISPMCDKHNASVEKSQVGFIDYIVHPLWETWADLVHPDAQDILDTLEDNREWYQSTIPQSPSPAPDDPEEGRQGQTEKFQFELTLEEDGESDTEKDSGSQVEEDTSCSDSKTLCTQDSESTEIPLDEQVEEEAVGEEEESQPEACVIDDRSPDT", "experiment": "Inhibition of human PDE4D2 at 10 uM by Eurofins kinase assay relative to control"}, "[9]": {"biological_target": "cGMP-specific 3',5'-cyclic phosphodiesterase (Homo sapiens) (UniProt O76074)", "experiment": "Inhibition of human PDE5 at 10 uM by Eurofins kinase assay relative to control"}, "[10]": {"species_on_record": "Homo sapiens", "experiment": "Inhibition of human PDE6 at 10 uM by Eurofins kinase assay relative to control"}, "[11]": {"biological_target": "High affinity 3',5'-cyclic-AMP phosphodiesterase 7A (Homo sapiens) (UniProt Q13946)", "experiment": "Inhibition of human PDE7A1 at 10 uM by Eurofins kinase assay relative to control"}, "[12]": {"biological_target": "High affinity cAMP-specific and IBMX-insensitive 3',5'-cyclic phosphodiesterase 8A (Homo sapiens) (UniProt O60658)", "experiment": "Inhibition of human PDE8A1 at 10 uM by Eurofins kinase assay relative to control"}, "[13]": {"biological_target": "cAMP and cAMP-inhibited cGMP 3',5'-cyclic phosphodiesterase 10A (Homo sapiens) (UniProt Q9Y233)", "experiment": "Inhibition of human PDE10A2 at 10 uM by Eurofins kinase assay relative to control"}, "[14]": {"biological_target": "Dual 3',5'-cyclic-AMP and -GMP phosphodiesterase 11A (Homo sapiens) (UniProt Q9HCR9)", "experiment": "Inhibition of human PDE11A at 10 uM by Eurofins kinase assay relative to control"}, "[15]": {"experiment": "Aqueous solubility of compound at pH 7.4", "assay_type": "physicochemical"}, "[16]": {"test_system": "Cryptosporidium parvum", "experiment": "Antiparasitic activity against Cryptosporidium parvum Iowa oocyst infected in NOD SCID gamma mouse model assessed as reduction in parasite fecal shedding at 50 mg/kg, po administered twice daily for 7 days starting from day 7 post infection and measured on day 21 by qPCR analysis", "assay_type": "functional, organism-based", "details": "time 14.0 day"}, "[17]": {"experiment": "Cytotoxicity against human HCT-8 cells assessed as inhibition of cell proliferation incubated for 48 hrs by Celltiter aqueous assay", "assay_type": "toxicity, cell-based", "details": "read-out: TC50"}, "[18]": {"biological_target": "Voltage-gated inwardly rectifying potassium channel KCNH2 (Homo sapiens, UniProt Q12809)", "sequence (Q12809 whole entry)": "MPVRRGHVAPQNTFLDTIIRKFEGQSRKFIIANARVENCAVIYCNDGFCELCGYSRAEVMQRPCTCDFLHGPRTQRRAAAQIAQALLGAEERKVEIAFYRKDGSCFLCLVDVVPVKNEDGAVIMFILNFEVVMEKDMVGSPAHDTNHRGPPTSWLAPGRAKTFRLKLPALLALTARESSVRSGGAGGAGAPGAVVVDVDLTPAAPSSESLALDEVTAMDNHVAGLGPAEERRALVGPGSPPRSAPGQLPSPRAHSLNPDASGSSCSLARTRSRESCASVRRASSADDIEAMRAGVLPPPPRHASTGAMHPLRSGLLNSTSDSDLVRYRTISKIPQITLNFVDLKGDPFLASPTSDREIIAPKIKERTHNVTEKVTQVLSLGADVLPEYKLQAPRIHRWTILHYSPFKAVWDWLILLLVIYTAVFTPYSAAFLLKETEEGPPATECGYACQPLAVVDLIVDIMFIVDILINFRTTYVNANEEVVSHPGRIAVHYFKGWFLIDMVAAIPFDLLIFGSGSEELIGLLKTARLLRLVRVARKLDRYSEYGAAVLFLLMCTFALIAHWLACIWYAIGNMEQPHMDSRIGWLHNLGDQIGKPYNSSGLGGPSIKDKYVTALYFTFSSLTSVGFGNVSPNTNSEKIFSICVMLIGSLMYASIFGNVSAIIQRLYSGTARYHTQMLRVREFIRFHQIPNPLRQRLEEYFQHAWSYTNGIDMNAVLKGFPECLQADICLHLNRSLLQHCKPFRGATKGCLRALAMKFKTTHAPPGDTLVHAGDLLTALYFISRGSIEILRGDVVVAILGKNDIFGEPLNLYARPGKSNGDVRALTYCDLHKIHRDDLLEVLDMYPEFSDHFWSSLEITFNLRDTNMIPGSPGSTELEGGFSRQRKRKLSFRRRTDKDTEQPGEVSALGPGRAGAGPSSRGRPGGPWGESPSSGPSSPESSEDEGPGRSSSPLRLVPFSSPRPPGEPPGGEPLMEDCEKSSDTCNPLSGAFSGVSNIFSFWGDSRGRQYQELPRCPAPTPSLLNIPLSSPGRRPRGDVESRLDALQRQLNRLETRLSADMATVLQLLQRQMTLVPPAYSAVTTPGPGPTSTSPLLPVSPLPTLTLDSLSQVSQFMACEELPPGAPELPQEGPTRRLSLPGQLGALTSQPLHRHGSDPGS", "experiment": "Inhibition of human ERG by Eurofins kinase assay", "assay_type": "toxicity"}, "[19]": {"biological_target": "Cytochrome P450 1A2 (Homo sapiens, UniProt P05177)", "experiment": "Inhibition of recombinant human CYP1A2 by Eurofins assay", "assay_type": "ADME"}, "[20]": {"biological_target": "Cytochrome P450 2B6 (Homo sapiens, UniProt P20813)", "sequence (P20813 whole entry)": "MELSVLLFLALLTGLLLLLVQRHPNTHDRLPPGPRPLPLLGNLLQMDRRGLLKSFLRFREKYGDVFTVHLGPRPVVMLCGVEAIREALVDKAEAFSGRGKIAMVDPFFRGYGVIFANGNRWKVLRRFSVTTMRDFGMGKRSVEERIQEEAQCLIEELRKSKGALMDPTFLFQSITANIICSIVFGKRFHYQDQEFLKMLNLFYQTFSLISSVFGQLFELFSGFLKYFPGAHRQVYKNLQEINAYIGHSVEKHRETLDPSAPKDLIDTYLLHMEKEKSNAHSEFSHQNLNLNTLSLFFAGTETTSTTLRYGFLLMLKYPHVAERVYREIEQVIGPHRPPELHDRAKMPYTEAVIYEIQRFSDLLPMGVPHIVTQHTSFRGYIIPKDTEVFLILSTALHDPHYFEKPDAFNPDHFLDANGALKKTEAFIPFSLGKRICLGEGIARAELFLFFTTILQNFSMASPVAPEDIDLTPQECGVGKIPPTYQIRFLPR", "experiment": "Inhibition of recombinant human CYP2B6 by Eurofins assay", "assay_type": "ADME"}, "[21]": {"biological_target": "Cytochrome P450 2C8 (Homo sapiens, UniProt P10632)", "experiment": "Inhibition of recombinant human CYP2C8 by Eurofins assay", "assay_type": "ADME"}, "[22]": {"biological_target": "Cytochrome P450 2C19 (Homo sapiens, UniProt P33261)", "experiment": "Inhibition of recombinant human CYP2C19 by Eurofins assay", "assay_type": "ADME"}, "[23]": {"biological_target": "Cytochrome P450 2D6 (Homo sapiens, UniProt P10635)", "experiment": "Inhibition of recombinant human CYP2D6 by Eurofins assay", "assay_type": "ADME"}, "[24]": {"biological_target": "Cytochrome P450 3A4 (Homo sapiens, UniProt P08684)", "sequence (P08684 whole entry)": "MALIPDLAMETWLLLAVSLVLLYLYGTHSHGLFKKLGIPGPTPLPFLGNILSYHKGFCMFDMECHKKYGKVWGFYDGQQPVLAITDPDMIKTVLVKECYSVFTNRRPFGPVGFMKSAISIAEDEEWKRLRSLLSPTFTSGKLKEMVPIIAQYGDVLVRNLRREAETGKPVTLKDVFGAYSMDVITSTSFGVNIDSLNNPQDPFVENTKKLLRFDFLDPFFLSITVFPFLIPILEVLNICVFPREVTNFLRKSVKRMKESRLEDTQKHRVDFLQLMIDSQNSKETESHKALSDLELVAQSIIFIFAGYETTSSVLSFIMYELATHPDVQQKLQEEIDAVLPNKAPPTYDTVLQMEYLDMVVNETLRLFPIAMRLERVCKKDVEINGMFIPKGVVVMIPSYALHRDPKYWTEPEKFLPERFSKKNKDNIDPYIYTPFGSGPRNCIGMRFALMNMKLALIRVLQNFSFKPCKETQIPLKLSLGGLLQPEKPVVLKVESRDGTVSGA", "experiment": "Inhibition of recombinant human CYP3A4 by Eurofins assay", "assay_type": "ADME"}, "[25]": {"biological_target": "T1, 3',5'-cyclic-AMP phosphodiesterase 4D", "experiment": "Inhibition of human PDE4D2 by Eurofins kinase assay", "assay_type": "toxicity"}, "[26]": {"biological_target": "PDE4B1 (Homo sapiens, UniProt Q07343)", "experiment": "Inhibition of recombinant human PDE4B1 extracted from Sf9 cells using [3H]cAMP as substrate at 10 uM by Eurofins kinase assay relative to control", "assay_type": "toxicity, cell-free", "details": "probe [3H]cAMP"}, "[27]": {"biological_target": "PDE5 (Homo sapiens, UniProt O76074)", "experiment": "Inhibition of human platelet PDE5 using [3H]cGMP as substrate at 10 uM by Eurofins kinase assay relative to control", "assay_type": "toxicity", "details": "human platelet PDE5, probe [3H]cGMP"}, "[28]": {"test_system": "PDE6", "experiment": "Inhibition of bovine retina PDE6 using [3H]cGMP as substrate at 10 uM by Eurofins kinase assay relative to control", "assay_type": "toxicity, Bos taurus", "details": "cattle, bovine retina PDE6, probe [3H]cGMP"}, "[29]": {"biological_target": "PDE11A (Homo sapiens, UniProt Q9HCR9)", "experiment": "Inhibition of recombinant human PDE11A extracted from Sf9 cells using [3H]cAMP as substrate at 10 uM by Eurofins kinase assay relative to control", "assay_type": "toxicity, cell-free", "details": "probe [3H]cAMP"}}, "note": "Calls of active or inactive are those of the source. The rule behind the calls is not given here.", "data": [{"smiles": "CCc1nn(C)c2nc(-c3ccc(C(=O)O)cc3)nc(NCc3ccc(F)cc3)c12", "values": [{"measurement": "Activity", "setting": "[1]", "value": "Non-toxic"}, {"measurement": "inhibition", "setting": "[2]", "value": 18, "unit": "%"}, {"measurement": "inhibition", "setting": "[3]", "value": 36, "unit": "%"}, {"measurement": "inhibition", "setting": "[4]", "value": 27, "unit": "%"}, {"measurement": "inhibition", "setting": "[5]", "value": 2, "unit": "%"}, {"measurement": "inhibition", "setting": "[6]", "value": 31, "unit": "%"}, {"measurement": "inhibition", "setting": "[7]", "value": 54, "unit": "%"}, {"measurement": "inhibition", "setting": "[8]", "value": 42, "unit": "%"}, {"measurement": "inhibition", "setting": "[9]", "value": 93, "unit": "%"}, {"measurement": "inhibition", "setting": "[10]", "value": 79, "unit": "%"}, {"measurement": "inhibition", "setting": "[11]", "value": 22, "unit": "%"}, {"measurement": "inhibition", "setting": "[12]", "value": 30, "unit": "%"}, {"measurement": "inhibition", "setting": "[13]", "value": 37, "unit": "%"}, {"measurement": "inhibition", "setting": "[14]", "value": 55, "unit": "%"}, {"measurement": "solubility", "setting": "[15]", "value": "> 200", "unit": "µM"}, {"measurement": "Activity", "setting": "[16]", "value": "Active"}, {"measurement": "CC50 at 48 h", "setting": "[17]", "value": "> 100", "unit": "µM"}, {"measurement": "IC50", "setting": "[18]", "value": "> 10", "unit": "µM"}, {"measurement": "IC50", "setting": "[19]", "value": "> 10", "unit": "µM"}, {"measurement": "IC50", "setting": "[20]", "value": "> 10", "unit": "µM"}, {"measurement": "IC50", "setting": "[21]", "value": "> 10", "unit": "µM"}, {"measurement": "IC50", "setting": "[22]", "value": "> 10", "unit": "µM"}, {"measurement": "IC50", "setting": "[23]", "value": "> 10", "unit": "µM"}, {"measurement": "IC50", "setting": "[24]", "value": "> 10", "unit": "µM"}, {"measurement": "IC50", "setting": "[25]", "value": 8.2, "unit": "µM"}, {"measurement": "inhibition at 10 µM", "setting": "[26]", "value": "> 50", "unit": "%"}, {"measurement": "inhibition at 10 µM", "setting": "[27]", "value": "> 50", "unit": "%"}, {"measurement": "inhibition at 10 µM", "setting": "[28]", "value": "> 50", "unit": "%"}, {"measurement": "inhibition at 10 µM", "setting": "[29]", "value": "> 50", "unit": "%"}]}]}
